Source: article PMC10220892 (Pharmaceutics, 2023)
In brackets after ≈: the same amount, converted by molar mass.

Assays:
U87MG cells [1] = test: MTT cell viability assay; type: cell-based; conditions: Homo sapiens, U-87 MG, 72 h
Description: (§1) U87MG, U251, U87MG-EGFRvIII, and U87MG-TMZR cells were cultured in DMEM supplemented with 10% FBS and plated at low density in 96-well plates (2000 cells per well). Then, the cells were treated with different concentrations of gefitinib or compound SMUZ106 for a period of 72 h. MTT (5 mg/mL) was added to each well, and the cells were incubated for another 4 h at 37 °C. The optical density value at 570 nm was measured using a microplate reader (TECAN, Männedorf, Switzerland).

[2] = system: U87MG-TMZR cells (TMZ-resistant U87MG cells); test: MTT cell viability assay; type: cell-based; conditions: Homo sapiens, U-87 MG, 72 h
Description: as §1

U87MG-EGFRvIII cells [3] = test: Apoptosis analysis by flow cytometry (Annexin V-FITC/PI); type: cell-based; conditions: 48 h
Description: (§2) U87MG-EGFRvIII cells were seeded into 6-well plates and treated with different concentrations of the compound SMUZ106 (2.5, 5, and 10 μM) for 48 h. Following the treatment, the cells were harvested, washed twice with cold PBS, and fixed overnight at 4 °C in 70% ethanol, then stained with PI solution to analyze the cell cycle distribution via flow cytometry. The results were determined using the ModFit LT 5.0 software. Each assay was performed in triplicates.
To perform the apoptosis analysis, after being washed with PBS, the cells were resuspended in 195 μL Annexin V-FITC binding solution, and then 5 µL of Annexin V-FITC was added, followed by 10 µL PI. Following incubation at room temperature for 20 min in the dark, cell apoptosis rates were detected by flow cytometry. The data were analyzed using FlowJo_V10 software.

phospho-EGFR [4] = test: Western blotting of EGFR signaling in U87MG cells; type: cell-based; conditions: 2.5, 5 and 10 μM, 48 h
Description: (§3) The GBM cells were exposed to compound SMUZ106 at different concentrations (2.5, 5, and 10 μM) for 48 h, and the total proteins were extracted from the cells using RIPA lysis buffer. The concentration of the obtained protein was determined using the BCA Protein Assay Kit (Thermo Fisher, Waltham, MA, USA). Equivalent protein samples (30 μg) were subjected to SDS-PAGE gels and transferred to NC membranes (PALL, Port Washington, NY, USA). Then, the membranes were blocked with 5% milk in TBST for 1 h at RT and probed with primary antibodies diluted overnight at 4 °C, followed by incubation with appropriate secondary antibodies for 1 h at RT. Finally, the protein bands were visualized and scanned using an imaging system (ProteinSimple, Santa Clara, CA, USA).

HER4 [5] = target: T1, HER4 (Homo sapiens, UniProt Q15303); test: HTRF KinEASE-TK single-point kinase assay; type: biochemical; conditions: read-out: inhibition rate HER4
Description: (§4) IC50 determinations for EGFR were performed with the Z’-LYTE technology platform (Life Technologies), according to the manufacturer’s instructions. The enzyme activity assays of compound SMUZ106 were performed at a single-point concentration (1 μM) against 76 kinases by using the HTRF KinEASE-TK assay according to the manufacturer’s instructions.

EGFR [6] = target: T2, EGFR (Homo sapiens, UniProt P00533); test: HTRF KinEASE-TK single-point kinase assay; type: biochemical; conditions: read-out: inhibition rate EGFR
Description: as §4

HER2 [7] = target: T3, HER2 (Homo sapiens, UniProt P04626); test: HTRF KinEASE-TK single-point kinase assay; type: biochemical; conditions: read-out: inhibition rate HER2
Description: as §4

U87MG-EGFRvIII cells [8] = test: Cell cycle analysis by flow cytometry (PI); type: cell-based; conditions: 48 h; for cells in S phase: control 35.68%; for cells in G0/G1 phase: control 50.82%
Description: as §2

HER4 [9] = target: T1, HER4; design: method as in PMID 27132165; conditions: Figure S1; read-out: IC50 HER4 kinase; cited from earlier work
EGFR [10] = target: T2, EGFR; design: method as in PMID 27132165; conditions: read-out: IC50 EGFR kinase; cited from earlier work
[11] = Pharmacokinetics study in mice; type: in vivo; conditions: male, Kunming, mouse, plasma
Description: A total of 72 male Kunming mice with an average weight of 20 g were purchased from Southern Medical University (Guangzhou, China) and divided into three groups, with […]. SMUZ106 was dissolved in 0.5% CMC-Na to prepare a suspension for oral administration (100 mg/kg). […] For the intravenous and oral administration, blood samples (0.5 mL) were collected from the mice’s orbital veins and placed into heparinized tubes at 0.25, 0.5, 1, 2, 6, 8, 12, and 24 h following administration. After centrifuging all the samples at 8000 r/min for 5 min, the supernatants were stored at −80 °C until analysis. Subsequently, the plasma samples were transferred to a clean 1.5 mL centrifuge tube and spiked with 100 μL of the internal standard solution (gefitinib, 1.0 μg/mL). Methyl alcohol was then added to the mixture, vortexed for 2 min, and centrifuged at 13,000 r/min for 30 min. […] A 10 µL aliquot of each sample was injected into the LC-MS/MS system for analysis. The pharmacokinetic parameters, such as half-life (t1/2), time of peak plasma concentration (Tmax), maximum plasma concentration (Cmax), mean residence time (MRT), area under the concentration–time curve (AUC), and bioavailability (F), were determined using DAS 2.0 software.

HER2 [12] = target: T3, HER2; design: method as in PMID 27132165; conditions: Figure S1; read-out: IC50 HER2 kinase; cited from earlier work
phospho-EGFR [13] = test: Western blotting of EGFR signaling in U87MG-EGFRvIII cells; type: cell-based; conditions: 2.5, 5 and 10 μM, 48 h
Description: as §3

Solubility by HPLC = type: physicochemical
Description: The solubility of the compound SMUZ106 and its related salts in artificial gastric juice, artificial intestinal fluid, and physiological saline were determined by HPLC. […] Therefore, SMUZ106 hydrochloride was selected for the pharmacokinetic analysis.

U251 cells [14] = test: Colony formation assay; type: cell-based; conditions: 1, 3 and 10 μM
Description: (§5) U87MG, U251, U87MG-EGFRvIII, and U87MG-TMZR cells were trypsinized, and suspended in 6-well plates. After a period of 24 h, the cells were exposed to compound SMUZ106 with different concentrations (1, 3, and 10 μM), and the U87MG-TMZR cells were exposed to compound SMUZ106 with different concentrations (3, 10, and 30 μM) for 72 h. After 10–14 days of cultivation, the cells were stained with 0.4% trypan blue to visualize the formed colony and to count the number of colonies by Enzyme-Linked Immunospot Analyzer (CTL, Shaker Heights, OH, USA).

U87MG cells [15] = test: Colony formation assay; type: cell-based; conditions: 1, 3 and 10 μM
Description: as §5

U87MG-EGFRvIII cells [16] = test: Colony formation assay; type: cell-based; conditions: 1, 3 and 10 μM
Description: as §5

U87MG-TMZR cells = test: Colony formation assay; type: cell-based; conditions: 3, 10 and 30 μM
Description: as §5

U251 cells [17] = test: MTT cell viability assay; type: cell-based; conditions: Homo sapiens, U-251, 72 h
Description: as §1

U87MG-EGFRvIII cells [18] = test: MTT cell viability assay; type: cell-based; conditions: 72 h
Description: as §1

[19] = system: panel of 76 tyrosine kinases; test: Kinase selectivity screen (HTRF KinEASE-TK); type: biochemical; conditions: 1 μM, 76 kinases
Description: as §4

T2 sequence (P00533 25-1210): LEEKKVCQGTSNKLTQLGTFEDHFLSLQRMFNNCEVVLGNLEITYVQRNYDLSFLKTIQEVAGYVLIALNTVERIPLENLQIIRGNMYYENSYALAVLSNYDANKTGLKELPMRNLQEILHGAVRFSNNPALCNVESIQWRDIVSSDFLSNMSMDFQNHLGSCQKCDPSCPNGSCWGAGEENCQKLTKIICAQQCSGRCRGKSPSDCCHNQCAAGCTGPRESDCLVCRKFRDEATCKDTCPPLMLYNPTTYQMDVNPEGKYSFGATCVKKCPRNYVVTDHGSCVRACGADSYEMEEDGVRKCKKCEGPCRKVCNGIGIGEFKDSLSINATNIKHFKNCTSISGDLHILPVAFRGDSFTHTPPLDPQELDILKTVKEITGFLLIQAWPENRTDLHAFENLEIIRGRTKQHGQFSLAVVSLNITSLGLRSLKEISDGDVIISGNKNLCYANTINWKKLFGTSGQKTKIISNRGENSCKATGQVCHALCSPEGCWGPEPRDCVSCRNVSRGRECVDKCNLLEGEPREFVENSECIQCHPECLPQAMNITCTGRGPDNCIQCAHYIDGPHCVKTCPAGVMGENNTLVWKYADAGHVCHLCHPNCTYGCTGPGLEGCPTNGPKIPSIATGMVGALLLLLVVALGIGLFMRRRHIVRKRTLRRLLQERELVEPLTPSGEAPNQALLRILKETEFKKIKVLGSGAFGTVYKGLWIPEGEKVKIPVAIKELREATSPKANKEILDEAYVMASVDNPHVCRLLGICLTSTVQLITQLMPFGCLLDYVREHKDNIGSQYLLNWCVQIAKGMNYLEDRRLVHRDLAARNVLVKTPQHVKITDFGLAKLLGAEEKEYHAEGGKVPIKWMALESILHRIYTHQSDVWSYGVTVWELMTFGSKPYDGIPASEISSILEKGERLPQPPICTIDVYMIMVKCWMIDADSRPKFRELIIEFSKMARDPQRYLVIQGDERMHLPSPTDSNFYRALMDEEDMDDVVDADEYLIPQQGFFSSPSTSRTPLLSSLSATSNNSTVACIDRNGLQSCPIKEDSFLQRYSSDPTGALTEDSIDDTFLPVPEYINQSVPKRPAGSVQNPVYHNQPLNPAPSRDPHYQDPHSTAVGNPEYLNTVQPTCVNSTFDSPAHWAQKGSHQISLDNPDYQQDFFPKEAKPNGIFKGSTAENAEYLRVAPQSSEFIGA
T1 sequence (Q15303 26-1308): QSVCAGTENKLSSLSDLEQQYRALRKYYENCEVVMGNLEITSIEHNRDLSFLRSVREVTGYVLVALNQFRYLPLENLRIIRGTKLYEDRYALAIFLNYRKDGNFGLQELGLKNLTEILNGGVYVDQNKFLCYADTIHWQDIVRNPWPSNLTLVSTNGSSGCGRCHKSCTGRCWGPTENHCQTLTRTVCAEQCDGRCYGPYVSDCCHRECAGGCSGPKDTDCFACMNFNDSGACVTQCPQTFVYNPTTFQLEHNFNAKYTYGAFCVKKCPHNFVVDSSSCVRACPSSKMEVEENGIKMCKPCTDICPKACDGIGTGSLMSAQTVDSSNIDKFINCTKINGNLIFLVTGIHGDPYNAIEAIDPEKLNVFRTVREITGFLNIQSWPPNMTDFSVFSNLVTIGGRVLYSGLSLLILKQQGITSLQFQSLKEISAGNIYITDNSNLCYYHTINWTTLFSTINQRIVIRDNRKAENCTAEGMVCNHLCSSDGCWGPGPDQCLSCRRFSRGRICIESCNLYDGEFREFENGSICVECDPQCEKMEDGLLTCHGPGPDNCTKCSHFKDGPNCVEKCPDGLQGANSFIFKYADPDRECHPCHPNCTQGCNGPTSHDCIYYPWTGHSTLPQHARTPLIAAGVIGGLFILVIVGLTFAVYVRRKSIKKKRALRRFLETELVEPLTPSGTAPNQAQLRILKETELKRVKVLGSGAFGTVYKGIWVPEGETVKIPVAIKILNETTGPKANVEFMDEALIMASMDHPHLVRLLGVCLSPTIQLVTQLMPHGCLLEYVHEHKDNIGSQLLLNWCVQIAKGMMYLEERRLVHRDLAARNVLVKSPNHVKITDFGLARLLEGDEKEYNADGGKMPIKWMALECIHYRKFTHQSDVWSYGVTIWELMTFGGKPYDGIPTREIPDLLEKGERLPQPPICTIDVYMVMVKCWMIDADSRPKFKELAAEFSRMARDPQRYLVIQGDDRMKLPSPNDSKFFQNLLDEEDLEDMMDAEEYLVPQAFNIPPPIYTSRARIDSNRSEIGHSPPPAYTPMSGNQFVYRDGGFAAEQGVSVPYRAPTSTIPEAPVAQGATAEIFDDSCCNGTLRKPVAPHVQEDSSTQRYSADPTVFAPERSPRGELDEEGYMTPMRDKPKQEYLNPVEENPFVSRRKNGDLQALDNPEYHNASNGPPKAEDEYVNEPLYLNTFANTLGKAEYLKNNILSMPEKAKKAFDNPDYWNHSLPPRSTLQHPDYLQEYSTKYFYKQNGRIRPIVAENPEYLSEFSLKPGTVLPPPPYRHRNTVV
T3 sequence (P04626 23-1255): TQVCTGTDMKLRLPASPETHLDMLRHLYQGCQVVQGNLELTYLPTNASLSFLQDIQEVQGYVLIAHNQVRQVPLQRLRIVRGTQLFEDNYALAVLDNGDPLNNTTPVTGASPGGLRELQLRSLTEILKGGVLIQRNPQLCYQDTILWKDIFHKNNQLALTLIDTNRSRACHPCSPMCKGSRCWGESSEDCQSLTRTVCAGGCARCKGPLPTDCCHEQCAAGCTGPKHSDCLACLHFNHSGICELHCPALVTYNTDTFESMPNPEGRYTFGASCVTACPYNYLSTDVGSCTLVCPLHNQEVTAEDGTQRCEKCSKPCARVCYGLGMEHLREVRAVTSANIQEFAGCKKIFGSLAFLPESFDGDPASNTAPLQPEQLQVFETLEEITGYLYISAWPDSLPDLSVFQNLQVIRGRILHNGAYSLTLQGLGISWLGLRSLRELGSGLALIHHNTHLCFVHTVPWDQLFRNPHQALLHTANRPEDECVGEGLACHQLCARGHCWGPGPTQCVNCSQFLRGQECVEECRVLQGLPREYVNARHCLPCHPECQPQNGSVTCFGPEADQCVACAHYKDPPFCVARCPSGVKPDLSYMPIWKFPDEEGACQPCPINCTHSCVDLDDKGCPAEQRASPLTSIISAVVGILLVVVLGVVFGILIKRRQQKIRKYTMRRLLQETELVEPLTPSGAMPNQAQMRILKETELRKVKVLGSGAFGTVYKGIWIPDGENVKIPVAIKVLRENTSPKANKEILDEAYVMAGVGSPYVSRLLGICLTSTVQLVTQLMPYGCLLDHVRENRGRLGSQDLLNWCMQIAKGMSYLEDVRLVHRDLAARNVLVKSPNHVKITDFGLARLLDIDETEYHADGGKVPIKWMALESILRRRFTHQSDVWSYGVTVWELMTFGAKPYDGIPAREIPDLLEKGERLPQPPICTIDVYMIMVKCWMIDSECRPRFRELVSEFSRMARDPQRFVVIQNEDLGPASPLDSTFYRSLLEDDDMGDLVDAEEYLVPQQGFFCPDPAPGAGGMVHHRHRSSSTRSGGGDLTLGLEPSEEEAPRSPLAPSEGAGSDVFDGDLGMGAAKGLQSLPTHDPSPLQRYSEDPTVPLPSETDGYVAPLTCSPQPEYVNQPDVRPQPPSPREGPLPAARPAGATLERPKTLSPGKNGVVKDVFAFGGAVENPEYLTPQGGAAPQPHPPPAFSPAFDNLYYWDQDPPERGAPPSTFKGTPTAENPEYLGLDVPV

Cn1nnc2c(C(N)=O)ncn2c1=O [TMZ, temozolomide, reference compound]
IC50 (U87MG cells [1]): 501 µM
IC50 [2]: 2040 µM

c1cnc2ccc(Nc3ncnc4ccc(-c5cnn(C6CCNCC6)c5)cc34)cc2c1 [SMUZ106, 6-(1-(piperidin-4-yl)-1H-pyrazol-4-yl)-N-(quinolin-6-yl)quinazolin-4-amine]
percentage of apoptotic cells (U87MG-EGFRvIII cells [3]; 2.5 μM): 2.34%
percentage of apoptotic cells (U87MG-EGFRvIII cells [3]; 5 μM): 2.70%
percentage of apoptotic cells (U87MG-EGFRvIII cells [3]; 10 μM): 3.02%
phosphorylation levels of AKT and Erk1/2 (phospho-EGFR [4]): did not significantly downregulate
protein expression level of total EGFR (phospho-EGFR [4]): remained unchanged
protein level of phospho-EGFR (phospho-EGFR [4]): decreased dose dependently
inhibition at 1 µM (HER4 [5]): 87.3%
inhibition at 1 µM (EGFR [6]): 98.7%
inhibition at 1 µM (HER2 [7]): 75.4%
cells in S phase (U87MG-EGFRvIII cells [8]; 2.5 μM): 27.08%
cells in G0/G1 phase (U87MG-EGFRvIII cells [8]; 2.5 μM): 54.44%
cells in S phase (U87MG-EGFRvIII cells [8]; 5 μM): 24.01%
cells in G0/G1 phase (U87MG-EGFRvIII cells [8]; 5 μM): 58.17%
cells in S phase (U87MG-EGFRvIII cells [8]; 10 μM): 20.78%
cells in G0/G1 phase (U87MG-EGFRvIII cells [8]; 10 μM): 62.50%
IC50 (HER4 [9]): 0.93 µM
IC50 (EGFR [10]): 0.0441 µM
bioavailability ([11]; oral, p.o. 100 mg/kg vs i.v. 25 mg/kg, read-out: F (absolute bioavailability)): 29%
AUC(0-inf) ([11]; po, p.o. 100 mg/kg): 7.51 ± 1.06 µg·h/mL
Cmax ([11]; po, p.o. 100 mg/kg): 1.19 ± 0.464 µg/mL
Tmax ([11]; po, p.o. 100 mg/kg): 6 h
half-life ([11]; po, p.o. 100 mg/kg): 0.87 ± 0.01 h
MRT last ([11]; po, p.o. 100 mg/kg, read-out: MRT0→t): 6.32 ± 0.22 h
IC50 (HER2 [12]): 0.874 µM
phosphorylation levels of AKT and Erk1/2 (phospho-EGFR [13]): did not significantly downregulate
protein expression level of total EGFR (phospho-EGFR [13]): remained unchanged
protein level of phospho-EGFR (phospho-EGFR [13]): decreased dose dependently
solubility (Solubility by HPLC; artificial gastric juice, simulated gastric fluid): 16.8 mg/mL (≈ 39.8 mM)
solubility (Solubility by HPLC; artificial intestinal juice, fassgf or other biorelevant): 0.22 mg/mL (≈ 0.522 mM)
solubility (Solubility by HPLC; medium not named in the sentence (values match artificial gastric juice of Table S2)): 16.8 mg/mL (≈ 39.8 mM)
solubility (Solubility by HPLC; normal saline, saline or isotonic): 3.69 mg/mL (≈ 8.75 mM)
clonogenicity (number of colonies) (U251 cells [14]): significantly decreased the clonogenicity
clonogenicity (number of colonies) (U87MG cells [15]): significantly decreased the clonogenicity
clonogenicity (number of colonies) (U87MG-EGFRvIII cells [16]): significantly decreased the clonogenicity
clone formation (U87MG-TMZR cells): could inhibit the proliferation of TMZ-resistant U87MG cells
IC50 (U251 cells [17]): 10.3 µM
IC50 (U87MG cells [1]): 7.43 µM
IC50 (U87MG-EGFRvIII cells [18]): 4.36 µM
IC50 [2]: 7.86 µM
kinase selectivity [19]: excellent selectivity to EGFR
